Measured values taken from article PMC8001704, “A Review of Red Yeast Rice, a Traditional Fermented Food in Japan and East Asia: Its Characteristic Ingredients and Application in the Maintenance and Improvement of Health in Lipid Metabolism and the Circulatory System” (Molecules, 2021).
Read-outs that look alike come from different tables or passages of the source. Blank lines part the entries; values can stand above or below the compound they belong to.

What was measured:
[1] = test system: presynaptic GABA receptors; parameters: method as in PMID 10369462, PMID 11906718; conditions: through reduction of adrenergic vasoconstriction; cited from earlier work
[2] = parameters: method as in PMID 16256107, PMID 8930162; conditions: cited from earlier work
Cardiac myocytes = test system: Cardiac myocytes; parameters: method as in PMID 11444504; conditions: cited from earlier work
[3] = test system: Patients with hypercholesterolemia; parameters: method as in PMID 9456275; conditions: cited from earlier work
[4] = test system: Human umbilical vein endothelial cells (HUVECs); parameters: method as in PMID 16141529; conditions: cited from earlier work
[5] = parameters: method as in PMID 27014344, doi:10.17546/msd.58298; conditions: cited from earlier work
Hypertensive model mice = test system: Hypertensive model mice; parameters: method as in PMID 10405198; conditions: cited from earlier work
[6] = test system: Rabbits fed on a high-lipid diet; parameters: method as in PMID 1376794; conditions: cited from earlier work
[7] = parameters: method as in PMID 23675421, PMID 7830729; conditions: cited from earlier work
[8] = test system: Mesenchymal stem cells derived from rat bone marrow; parameters: method as in PMID 17497701; conditions: cited from earlier work
[9] = test system: Squamous epithelial cancer cells; parameters: method as in PMID 20562912; conditions: cited from earlier work
experimental animals = test system: experimental animals; parameters: method as in PMID 22929438; conditions: Several studies using experimental animals; cited from earlier work
cholesterol synthesis = conditions: cited from earlier work
[10] = Pharmacokinetics of monacolin K in plasma after single oral administration of purified monacolin K or red yeast rice; format: in vivo, male SD rats; conditions: for AUC(0-t) / Cmax: male, SD, rat, po
Description: Recently, we compared the pharmacokinetics of monacolin K in blood after oral administration of purified monacolin K (lactone form, 99% purity) and red yeast rice produced by solid-state fermentation in male SD rats (7 weeks old). Most of the monacolin K in the plasma was detected in its acid form: both in the monacolin K-administered group and the red yeast rice -administered group. […] The medicinal benefit of red yeast rice is considered to be different to that of monacolin K alone. […] Since red yeast rice contains various ingredients, synergistic effects are expected.
Figure 14 Plasma concentrations of lactone form and acid form of monacolin K after single administration of purified monacolin K or red yeast rice (40 mg/kg monacolin K or dose of red yeast rice equivalent to 40 mg/kg monacolin K) in male SD rats (7 weeks old). Each bar indicates the mean ± standard deviation, quantified according to the reference method.

[11] = parameters: method as in PMID 27422746; conditions: cited from earlier work
[12] = test system: peroxisome proliferator-activated receptors (PPARs), e.g., PPARα; parameters: method as in PMID 24275089; conditions: cited from earlier work
[13] = plasma, single administration, 40 mg/kg monacolin K or equivalent, individual rats 101-103, 201-203, 40 mg/kg

SMILES: NCCCC(=O)O [GABA, γ-amino butyric acid]
effect on blood pressure [1]: hypotensive effect
increases in blood pressure [2]: suppresses
sodium excretion from the kidneys [2]: promotes

form in which most of the monacolin K in the plasma was detected ([10]; after oral administration, male SD rats): acid form
AUC(0-t) ([10]; plasma, 40 mg/kg, plasma, single administration, 40 mg/kg monacolin K or equivalent dose of red yeast rice, male SD rats, mean, read-out: AUC0–4h of monacolin K lactone, Mean): 2.48 ng·h/mL
Cmax ([10]; plasma, 40 mg/kg, plasma, single administration, 40 mg/kg monacolin K or equivalent dose of red yeast rice, male SD rats, mean, read-out: Cmax of monacolin K lactone, Mean): 2.48 ng/mL
AUC(0-t) ([10]; plasma, 40 mg/kg, plasma, single administration, 40 mg/kg monacolin K or equivalent, individual rats 101-103, 201-203, read-out: AUC0–4h of monacolin K lactone, individual animals): 3.11 ng·h/mL
Cmax ([10]; plasma, 40 mg/kg, plasma, single administration, 40 mg/kg monacolin K or equivalent, individual rats 101-103, 201-203, read-out: Cmax of monacolin K lactone, individual animals): 3.11 ng/mL
AUC0–4h of monacolin K lactone, individual animals [10, 13]: 1.85 ng·h/mL
Cmax of monacolin K lactone, individual animals [10, 13]: 1.85 ng/mL
SMILES: CC[C@H](C)C(=O)O[C@H]1C[C@@H](C)C=C2C=C[C@H](C)[C@H](CC[C@@H]3C[C@@H](O)CC(=O)O3)[C@H]21 [Monacolin K, monacolin K]
Effect of Monacolin K, NOS signaling pathway (Cardiac myocytes): Increase of IL-1 induced production of nitrite (Increase in NOS expression and NO production mediated by Rho inhibition)
Effect of Monacolin K, atheroma formation [3]: Inhibition of platelet aggregation, macrophage foam cell formation and LDL oxidation
Effect of Monacolin K, atheroma formation [4]: Inhibition of NF-KB activation by CRP
plasma viscosity [5]: decrease plasma viscosity
Effect of Monacolin K, blood circulation (Hypertensive model mice): Increase in renal blood flow
Effect of Monacolin K, atheroma formation [6]: Decrease in number of plaques in the aorta and lung artery
oxidation of LDL [7]: inhibits
vascular endothelial function (vasoconstrictor reaction) ([7]; in hyperlipidemia): improves
Effect of Monacolin K, NOS signaling pathway [8]: Activation (phosphorylation) of AI3K/Akt pathway and MEK 1/2 pathway
Effect of Monacolin K, NOS signaling pathway [9]: Induction of expression of Rho family proteins
Effect of Monacolin K, blood circulation (experimental animals): Increase in cerebral blood flow and cerebral vasomotor response
inhibition of cholesterol synthesis (cholesterol synthesis): potent inhibitor of cholesterol synthesis

SMILES: C/C=C/C1=CC2=C(CO1)C(=O)[C@]1(C)OC(=O)[C@H](C(=O)CCCCCCC)[C@H]1C2 [ankaflavin]
LDL-cholesterol oxidation [11]: suppressed
action on PPARs, e.g., PPARα [12]: agonist

SMILES: O=C1[C@H](CC[C@H](O)c2ccc(F)cc2)[C@@H](c2ccc(O)cc2)N1c1ccc(F)cc1 [ezetimibe]
plasma viscosity [5]: decrease plasma viscosity

SMILES: C/C=C/C1=CC2=C(CO1)C(=O)[C@]1(C)OC(=O)[C@H](C(=O)CCCCC)[C@H]1C2 [monascin]
LDL-cholesterol oxidation [11]: suppressed
action on PPARs, e.g., PPARα [12]: agonist
